{"source": "patent US8900551B2", "about": "“Peptide which passes through blood-brain barrier and targets apoptosis of neurodegenerative brain disease site and uses thereof” (Kyungpook National University Industry-Academic Cooperation …, priority 2009, dated 2014)", "key": {"[1]": {"system": "apoptotic cells within Alzheimer's disease-affected brain tissues", "experiment": "Immunofluorescence staining analysis of Alzheimer's disease-affected brain tissues injected with FITC-labeled peptide", "format": "in vivo", "settings": "frozen brain sections, Alzheimer's disease-affected mouse 13 months old", "method": "For histological examination, the brain tissues isolated from the mouse (13 months old) injected with the inventive peptide labeled with FITC fluorescence (green), which had been subjected to in vivo imaging in Example <1-1>, were postfixed by 4% paraformaldehyde liquid, and immersed in Sucrose/phosphate buffer for 24 hours. Then, they were prepared as frozen sections with a thickness of 30 μm by cryostat. Immunofluorescence staining on an antibody was carried out by using a secondary antibody labeled with alexa 568 (red fluorescent dye). Each tissue slide was observed by a fluorescence microscope (Zeiss)."}, "[2]": {"system": "apoptotic cells within Parkinson's disease-affected brain tissues", "experiment": "In vivo near infrared imaging of MPTP-induced Parkinson's disease mice with Cy7.5-labeled peptide", "parameters": "species or system mouse", "settings": "for near infrared fluorescence at the brain region: Cy7.5-labeled, intravenous, 2 hours", "method": "(§1) Parkinson's disease was induced by specifically destroying a dopaminergic neuron existing in substantia nigra of a brain by a drug. For this, to each of C57BL male mice (koatech) (body weight: 21 to 23 g), MPTP (1-methyl-4-phenyl-1,2,3,6-tetrahydro pyridine hydrochloride) (Sigma) was administered with a single dose of 15 mg/kg. MPTP administration was carried out with an interval of 2 hours, four times through intraperitoneal injection, and each mouse was administered with MPTP in a total amount of 60 mg/kg.\n(§2) On day 7, 14, and 21 from the administration of MPTP (day 0), the inventive peptide labeled with Cy7.5 was injected. The peptide was intravenously injected into a tail vein to a final concentration of 50 μM, under isoflurane anesthesia, and was circulated for 2 hours. Then, an in vivo near infrared fluorescence image was imaged. The mouse on which the experiment had been completed was immediately subjected to anesthesia and euthanasia. Then, a brain tissue sample was collected. From the dead mouse, blood was immediately removed by saline solution flushing through heart, and primarily fixed by re-flushing of 4% paraformaldehyde solution. The primarily fixed brain was collected from the mouse, and then postfixed by being placed for 1 day in 30% sucrose/phosphate buffer solution, and placed for 1 day in 4% paraformaldehyde phosphate buffer solution. The fixed brain tissues were rapidly frozen by dry ice, and formed into a block for frozen fractions. At some desired time, the stored brain block was prepared as frozen fractions, and used for various staining methods."}, "[3]": {"system": "apoptotic cells within Alzheimer's disease-affected brain tissues", "experiment": "In vivo near infrared imaging of Alzheimer's disease model mice with Cy7.5-labeled peptide", "parameters": "species or system mouse", "settings": "intravenous", "from_the_text": "(§3) As an Alzheimer's disease model, a transgenic mouse model over-expressing Amyloid precursor protein (APP) gene and Presenilin 1 (PS1) gene was used. The model animal has a characteristic that apoptosis together with extracellular accumulation of beta amyloid protein (one of the characteristics of Alzheimer's disease) gradually increases according to an increase of age. On mice, from a 5 month old mouse (early stage of alzheimer's disease) to a 13 month old mouse (severe stage), this experiment was performed according to the progression of disease. The apoptosis was confirmed by TUNEL (in vitro terminal deoxynucleotidyl transferase-mediated dUTP nick-end labeling) assay according to the manufacturer (Roche)'s instructions. In this method, biotin-dUTP is labeled at the end of a cleaved DNA fragment specifically occurring in apoptosis by using terminal deoxynucleotidyl transferase enzyme, and then fluorescence staining is performed by streptavidin-rhodamine (red fluorescent dye).\nThe Alzheimer's disease-affected mouse (5, 7, 9, and […]) models were intravenously injected with the inventive peptide (ApoPep-1) labeled with Cy7.5 near infrared fluorescence, under isoflurane anesthesia, to a final concentration of 50 μM. After 2 hours from the injection, a head region was imaged by near infrared imaging, and each brain was isolated and imaged by near infrared imaging. An in vivo near infrared fluorescence image was imaged by an Optix exPlore machine (ART). Also, by using the machine's own software, each image was standardized.\nThe peptide used in the present invention was synthesized by a standard Fmoc method, and separated by HPLC machine. The synthesis of the peptide was carried out by special companies (Peptron and Anygen). The peptide was synthesized in such a manner that N-terminal was combined with fluorescein isothiacyanate (FITC). Otherwise, after the synthesis of the peptide, N-terminal was combined with Cy7.5 near infrared fluorescent dye."}, "[4]": {"system": "apoptotic cells within Parkinson's disease-affected brain tissues", "experiment": "Immunofluorescence / TUNEL staining of Parkinson's disease-affected brain tissues injected with FITC-labeled peptide", "format": "in vivo, mouse", "from_the_text": "as §3, with “The apoptosis was confirmed by TUNEL (in vitro terminal deoxynucleotidyl transferase-mediated dUTP nick-end labeling) assay according to the manufacturer (Roche)'s instructions.” left out\n[…] Then, an in vivo near infrared fluorescence image was imaged. […]\nAlso, in order to monitor the therapeutic effect of a drug, after 30 minutes from the administration of MPTP, amantadine used as a Parkinson's disease therapeutic agent was intraperitoneally administered into each mouse in a dose of 25 mg/kg a total of seven times with a one day interval. […] Apoptosis was analyzed in the same manner as described in Example <1-1>."}, "[5]": {"system": "Parkinson's disease-affected mouse treated with MPTP", "experiment": "Monitoring the therapeutic effect of amantadine in MPTP-induced Parkinson's disease mice", "format": "in vivo", "method": "as §1, §2\nAlso, in order to monitor the therapeutic effect of a drug, after 30 minutes from the administration of MPTP, amantadine used as a Parkinson's disease therapeutic agent was intraperitoneally administered into each mouse in a dose of 25 mg/kg a total of seven times with a one day interval. On day 7 from the administration of amantadine, the inventive peptide labeled with Cy7.5 was injected, and imaging and tissue staining were carried out in the same manner as described above. Apoptosis was analyzed in the same manner as described in Example <1-1>."}, "[6]": {"settings": "Parkinson's disease-affected mouse (MPTP), 50 μM final"}, "[7]": {"settings": "amantadine following MPTP vs MPTP alone, brain tissues"}}, "note": "Where no end group is shown, it is not given here."}
{"compound": "inventive peptide: peptide targeting apoptotic cells, amino acid sequence CQRPPR (SEQ ID NO: 1), named ApoPep-1; N-terminal labeled with FITC or Cy7.5 (also: N-terminal FITC or Cy7.5 label)", "values": [{"measurement": "co-staining of peptide (green) with antibody to Caspase-3 (apoptosis biomarker)", "setting": "[1]", "result": "concurrently stained at the same cell"}, {"measurement": "distribution of peptide relative to brain blood vessel (α-SMA antibody staining); passing through blood-brain barrier", "setting": "[1]", "result": "distributed within brain parenchyma outside of a brain blood vessel"}, {"measurement": "near infrared fluorescence at the brain region", "setting": "[2]; [6]", "result": "strong near infrared fluorescence was observed"}, {"measurement": "near infrared fluorescence at a brain region with the lapse of time", "setting": "[2]; after 1 week, 2 weeks and 3 weeks from administration of MPTP", "result": "became stronger"}, {"measurement": "near infrared fluorescence at the brain region", "setting": "[2]; normal (wild type) mouse", "result": "hardly observed"}, {"measurement": "near infrared fluorescence intensity level at head region according to disease progression", "setting": "[3]; APP/PS1 Alzheimer's disease-affected mice 5, 7, 9, 13 months old, Cy7.5-labeled, 50 μM final, 2 hours after injection", "result": "near infrared fluorescence intensity level increased"}, {"measurement": "near infrared fluorescence at the brain region, Alzheimer's disease-affected mouse versus normal mouse", "setting": "[3]; Alzheimer's disease-affected mouse (7 and 9 months old) vs normal (wild type) mouse (8 months old), 2 hours", "result": "much stronger near infrared fluorescence at the brain region than the normal mouse"}, {"measurement": "co-location of peptide (green) with TUNEL staining (apoptosis biomarker)", "setting": "[4]; brain tissues of MPTP mice and mice administered with amantadine following MPTP (FIG. 7c)", "result": "located at the same cell"}, {"measurement": "co-location of peptide (green) with TUNEL staining (apoptosis biomarker)", "setting": "[4]; brain tissues of Parkinson's disease-affected mouse treated with MPTP, FITC-labeled peptide", "result": "concurrently located at the same cell"}]}
{"compound": "control peptide: control peptide (amino acid sequence, NSSSVDK) [reference compound]", "values": [{"measurement": "near infrared fluorescence at the brain region", "setting": "[2]; [6]", "result": "hardly observed"}, {"measurement": "near infrared fluorescence at brain region", "setting": "[3]; mouse (8 months old), Cy7.5-labeled, 2 hours after injection", "result": "hardly observed"}]}
{"compound": "NC12CC3CC(CC(C3)C1)C2", "note": "[amantadine]", "values": [{"measurement": "near infrared fluorescence of Cy7.5-labeled inventive peptide at brain region", "setting": "[5]; amantadine 25 mg/kg intraperitoneal, seven times at one day interval following MPTP, vs mouse administered with MPTP", "result": "lower near infrared fluorescence than the mouse administered with MPTP"}, {"measurement": "number of TUNEL-stained apoptotic cells", "setting": "[5]; amantadine following MPTP vs MPTP alone", "result": "reduction of apoptosis in neurons"}, {"measurement": "TUNEL staining (apoptosis biomarker)", "setting": "[5]; [7]", "result": "decrease of TUNEL staining"}, {"measurement": "antibody staining of tyrosine hydroxylase (TH) (dopaminergic neuron-specific marker)", "setting": "[5]; [7]", "result": "increase of antibody staining of tyrosine hydroxylase"}, {"measurement": "number of TH-stained dopaminergic neurons", "setting": "[5]; amantadine following MPTP vs MPTP alone, p<0.01", "result": "statistically significantly increased"}]}
